The CheMixHub viscosity set
“And” between values parts separate entries of the source, which are not always exact repeats. Equal entries are not always repeated.

How the values were obtained:
[1] = xn = mol fraction of the nth substance listed

CC(C)C[P+](C)(CC(C)C)CC(C)C.Cc1ccc(S(=O)(=O)[O-])cc1
Conditions | viscosity [mPa·s]
293.15 K, 101 kPa | 1320

CCCC(=O)[O-].OCC[NH2+]CCO
101.3 kPa
Conditions | viscosity [mPa·s]
293.15 K | 1832
298.15 K | 1226
303.15 K | 839.8
308.15 K | 588.7
313.15 K | 421.1
318.15 K | 307.1
323.15 K | 227.9

CCOCCn1cc[n+](C)c1.C[C@@H](O)[C@H](N)C(=O)[O-]
100 kPa
Conditions | viscosity [mPa·s]
298.15 K | 1133
303.15 K | 730.3
308.15 K | 438.8
313.15 K | 312.5
318.15 K | 206.8
323.15 K | 153.8

Cc1ccccc1
Conditions | viscosity
293.15 K, 100 kPa | 0.598 mPa·s
293.15 K, 101.2 kPa | 0.6003 mPa·s
293.15 K, 101.32 kPa | 0.5859 mPa·s
293.15 K, 101.33 kPa | 0.592 mPa·s
295.85 K, 101.33 kPa | 0.5984 mPa·s
298 K, 101.33 kPa | 0.546 mPa·s
298.15 K, 100 kPa | 0.551 mPa·s
298.15 K, 101.33 kPa | 0.506 mPa·s
302.4 K, 101 kPa | 0.9538 mPa·s
303 K, 100 kPa | 0.5268 mPa·s
303 K, 101.33 kPa | 0.514 mPa·s and 0.515 mPa·s
303.15 K, 100 kPa | 0.539 mPa·s
303.15 K, 101.2 kPa | 0.5357 mPa·s
303.15 K, 101.3 kPa | 0.5272 mPa·s
305.45 K, 101.33 kPa | 0.5375 mPa·s
308 K, 100 kPa | 0.4984 mPa·s
308.15 K, 100 kPa | 0.498 mPa·s
308.15 K, 101.2 kPa | 0.5069 mPa·s
308.15 K, 101.3 kPa | 0.492 mPa·s and 0.4981 mPa·s and 0.503 mPa·s
308.5 K, 101 kPa | 0.512 mPa·s
312.65 K, 101.33 kPa | 0.4982 mPa·s
313 K, 100 kPa | 0.4811 mPa·s
313 K, 101.33 kPa | 0.463 mPa·s and 0.461 mPa·s
313.15 K, 100 kPa | 0.495 mPa·s
313.15 K, 101 kPa | 0.4601 mPa·s and 0.4804 mPa·s and 0.559 mPa·s
313.15 K, 101.2 kPa | 0.4807 mPa·s
313.15 K, 101.33 kPa | 0.478 mPa·s and 0.478 mPa·s and 0.481 mPa·s
318.15 K, 100 kPa | 0.44 mPa·s
318.15 K, 101.2 kPa | 0.4571 mPa·s
318.15 K, 101.32 kPa | 0.4428 mPa·s
318.15 K, 101.33 kPa | 0.458 mPa·s
322.65 K, 101.33 kPa | 0.45 mPa·s
323 K, 101.33 kPa | 0.413 mPa·s and 0.418 mPa·s
323.15 K, 101 kPa | 0.4435 mPa·s and 0.418 mPa·s and 0.4321 mPa·s

CCOCCn1cc[n+](CCC#N)c1.O=S(=O)([N-]S(=O)(=O)C(F)(F)F)C(F)(F)F
101.33 kPa
Conditions | viscosity [mPa·s]
293.15 K | 401.1
303.15 K | 235.6
313.15 K | 146.2
323.15 K | 105

C[N+](C)(C)CCO.O=S(=O)([N-]S(=O)(=O)C(F)(F)F)C(F)(F)F
101 kPa
Conditions | viscosity [mPa·s]
298.15 K | 144.8
313.15 K | 56.44
318.15 K | 46.77
323.15 K | 39.28

O=C(O)CBr
Conditions | viscosity [mPa·s]
323.15 K, 101 kPa | 3.65

CC1COC(=O)O1 (stereo unspecified)
viscosity
Conditions | 293.15 K | 298.15 K | 303.15 K | 308.15 K | 313.15 K | 318.15 K | 323.15 K
99.7 kPa | – | – | 2.212 mPa·s | – | 1.998 mPa·s | – | 1.766 mPa·s
100 kPa | – | 2.53 mPa·s | – | – | – | – | –
101 kPa | 2.938 mPa·s and 2.738 mPa·s and 2.72 mPa·s | 2.531 mPa·s and 2.468 mPa·s and 2.51 mPa·s | 2.24 mPa·s and 2.3 mPa·s and 2.29 mPa·s | – | – | 1.654 mPa·s and 1.724 mPa·s and 1.85 mPa·s | 1.538 mPa·s and 1.595 mPa·s
101.3 kPa | 2.746 mPa·s and 2.763 mPa·s and 2.762 mPa·s | – | 2.246 mPa·s and 2.3 mPa·s and 2.149 mPa·s | 2.049 mPa·s and 2.046 mPa·s | 1.879 mPa·s and 1.902 mPa·s | 1.73 mPa·s and 1.755 mPa·s and 1.703 mPa·s | 1.6 mPa·s
101.33 kPa | 2.721 mPa·s | – | 2.237 mPa·s | – | 1.863 mPa·s | – | –

C1CCOC1
Conditions | viscosity
293.15 K, 101.33 kPa | 0.48 mPa·s
298 K, 101 kPa | 0.4608 mPa·s
298 K, 101.33 kPa | 0.461 mPa·s
298.15 K, 101.33 kPa | 0.53 mPa·s and 0.481 mPa·s and 0.472 mPa·s
303 K, 101 kPa | 0.42 mPa·s and 0.42 mPa·s
303 K, 101.3 kPa | 0.422 mPa·s
303.15 K, 101.32 kPa | 0.449 mPa·s
303.15 K, 101.33 kPa | 0.4496 mPa·s and 0.45 mPa·s and 0.45 mPa·s
308 K, 101.33 kPa | 0.42 mPa·s
313 K, 101 kPa | 0.39 mPa·s and 0.39 mPa·s
313 K, 101.3 kPa | 0.402 mPa·s
313.15 K, 100 kPa | 0.39 mPa·s
313.15 K, 101.33 kPa | 0.4066 mPa·s
323.15 K, 101.33 kPa | 0.3696 mPa·s

CC(C)=O
Conditions | viscosity
293.15 K, 100 kPa | 0.3276 mPa·s and 0.3276 mPa·s
293.15 K, 101.32 kPa | 0.318 mPa·s
293.15 K, 101.33 kPa | 0.337 mPa·s and 0.321 mPa·s
293.16 K, 101 kPa | 0.326 mPa·s
293.2 K, 101 kPa | 0.323 mPa·s
294.15 K, 101 kPa | 0.362 mPa·s
296 K, 101.3 kPa | 0.311 mPa·s
298.15 K, 100 kPa | 0.3186 mPa·s and 0.3186 mPa·s
298.15 K, 101.3 kPa | 0.316 mPa·s
298.15 K, 101.33 kPa | 0.3013 mPa·s and 0.3049 mPa·s and 0.307 mPa·s
298.16 K, 101 kPa | 0.316 mPa·s
302.4 K, 101 kPa | 0.5915 mPa·s
302.95 K, 101 kPa | 0.295 mPa·s
303.05 K, 101 kPa | 0.335 mPa·s
303.15 K, 100 kPa | 0.3091 mPa·s and 0.3091 mPa·s and 0.303 mPa·s
303.15 K, 101.33 kPa | 0.295 mPa·s and 0.298 mPa·s and 0.339 mPa·s
303.16 K, 101 kPa | 0.295 mPa·s
303.95 K, 101 kPa | 0.3366 mPa·s
307.35 K, 101.33 kPa | 0.29 mPa·s
308.15 K, 100 kPa | 0.2992 mPa·s and 0.2992 mPa·s
311.35 K, 101 kPa | 0.3166 mPa·s
313.15 K, 100 kPa | 0.289 mPa·s and 0.289 mPa·s and 0.276 mPa·s
313.15 K, 101.33 kPa | 0.3089 mPa·s
313.25 K, 101 kPa | 0.27 mPa·s
318.15 K, 100 kPa | 0.2784 mPa·s and 0.2784 mPa·s
318.15 K, 101 kPa | 0.279 mPa·s and 0.2649 mPa·s
318.15 K, 101.32 kPa | 0.2496 mPa·s
322.95 K, 101 kPa | 0.248 mPa·s
323.15 K, 100 kPa | 0.2673 mPa·s and 0.2673 mPa·s and 0.255 mPa·s
323.15 K, 101.33 kPa | 0.2871 mPa·s

CCCc1ccccc1
Conditions | viscosity [mPa·s]
303.15 K, 101 kPa | 0.7591
303.15 K, 101.3 kPa | 0.75
308.15 K, 101.33 kPa | 0.7001
313.15 K, 102 kPa | 0.649
323.15 K, 102 kPa | 0.573

Brc1ccc2[n-]cnc2c1.CCCCCCCCCCCCCC[P+](CCCCCC)(CCCCCC)CCCCCC
100 kPa
Conditions | viscosity [mPa·s]
293.15 K | 1910
298.15 K | 1270
303.15 K | 872
308.15 K | 613
313.15 K | 441
318.15 K | 325
323.15 K | 246

COc1ccccc1
Conditions | viscosity
293.15 K, 101.33 kPa | 1.05 mPa·s and 1.143 mPa·s
298.15 K, 101 kPa | 0.9912 mPa·s and 1 mPa·s and 0.9785 mPa·s
298.15 K, 101.3 kPa | 0.99 mPa·s and 0.991 mPa·s
303 K, 100 kPa | 0.9804 mPa·s
303 K, 101 kPa | 0.9804 mPa·s
303 K, 101.3 kPa | 0.981 mPa·s
303.15 K, 100 kPa | 0.923 mPa·s
303.15 K, 101.3 kPa | 0.916 mPa·s and 0.915 mPa·s and 0.923 mPa·s
308.15 K, 101 kPa | 0.856 mPa·s and 0.856 mPa·s and 0.8422 mPa·s
313 K, 100 kPa | 0.7623 mPa·s
313 K, 101 kPa | 0.7623 mPa·s
313.15 K, 100 kPa | 0.764 mPa·s
318.15 K, 101 kPa | 0.745 mPa·s and 0.745 mPa·s
318.15 K, 101.33 kPa | 0.739 mPa·s
323 K, 100 kPa | 0.6146 mPa·s
323 K, 101 kPa | 0.6146 mPa·s
323.15 K, 101 kPa | 0.692 mPa·s and 0.692 mPa·s and 0.72 mPa·s
323.15 K, 101.33 kPa | 0.691 mPa·s and 0.691 mPa·s and 0.69 mPa·s

CC(C)CC(=O)O
101.33 kPa
Conditions | viscosity [mPa·s]
293.15 K | 2.411
313.15 K | 1.672

CCCCn1cc[n+](C)c1.O=S(=O)([O-])C(F)(F)F
viscosity
Conditions | 293.15 K | 298.15 K | 303.15 K | 308.15 K | 313.15 K | 318.15 K | 323.15 K
100 kPa | 90.81 mPa·s and 102 mPa·s | 76.01 mPa·s and 87.96 mPa·s and 80.1 mPa·s | 63.6 mPa·s and 64.02 mPa·s | 56.43 mPa·s and 52.18 mPa·s | 42.11 mPa·s and 42.76 mPa·s | 38.31 mPa·s and 35.66 mPa·s | 30.02 mPa·s and 30.01 mPa·s
101 kPa | – | 59.8 mPa·s | – | – | – | – | 29.55 mPa·s

COc1ccccc1 + CC1COC(=O)O1
viscosity [mPa·s], [1], 101.33 kPa
Conditions | x2 = 0.0794 | x2 = 0.1323 | x2 = 0.2487 | x2 = 0.3578 | x2 = 0.4971 | x2 = 0.5795 | x2 = 0.6669 | x2 = 0.7278 | x2 = 0.835 | x2 = 0.9009
293.15 K | 1.142 | 1.199 | 1.316 | 1.449 | 1.64 | 1.773 | 1.917 | 2.031 | 2.246 | 2.406
303.15 K | 0.971 | 1.013 | 1.101 | 1.212 | 1.372 | 1.479 | 1.591 | 1.682 | 1.851 | 1.978
313.15 K | 0.849 | 0.889 | 0.972 | 1.066 | 1.177 | 1.26 | 1.347 | 1.423 | 1.569 | 1.671

CC(C)=O + CCCCn1cc[n+](C)c1.F[B-](F)(F)F
Conditions | viscosity [mPa·s]
[1], 298.15 K, 101 kPa, x1 = 0.0973 | 77.6
